A short description of series [1]: Metabolic stability in mouse liver microsomes (MLMs), UHPLC-MS. The following applies: for Metabolic Pathway: metabolites M1, M2 ... in order, after incubation with MLMs; for remaining at 2 h: mouse, liver microsomes; for remaining at 2 h / % Remaining: original compound remaining after 2 h (120 min) incubation with MLMs. The series is classed as in vitro ADME. Here is the method:
It seems, however, that substituents at the B ring of the ligands have a more important role. […] The data correspond to our previous results, in which substituents at the B ring increased metabolic stability. Potential sites in the molecules sensitive to enzyme activity and leading to degradation were proposed using an in silico approach, also with MetaSite 6.0.1 (Figure 7).
(§1) All assays were performed according to the protocols described previously.

In series [2] the test system is Danio rerio. Nature of the series: In vivo cardiotoxicity (heart rate, malformations) in zebrafish embryos. Particulars: 96 h. The method, then:
(§2) The compounds were evaluated for their ecotoxicity on the Danio rerio experimental model. OECD 236 test with modifications was applied. Both compounds were found cardiotoxic within the non-toxic range, based on the heart rate measurement. For the compound 2, 5 µg/mL was found cardiotoxic (Figure 10) and for 12, 7.5 µg/mL (Figure 11). The results were confirmed by malformations observation. […] Moreover, scoliosis (S) and tail autophagy (TA) were also noted.
To determine the toxicity of the compounds, the fish embryo toxicity (FET) test was performed on zebrafish (Danio rerio) according to OECD Test Guideline 236. The collected embryos were transferred to a Petri dish with E3 medium (5 mM NaCl, 0.33 mM MgCl2, 0.33 mM CaCl2, 0.17 mM KCl; pH 7.2) and then placed in 6-well plates, 10 embryos per well. Stock solutions 2 and 12 were prepared in DMSO. In these experiments, the range of different concentrations of the solutions was prepared by dissolving stock solutions in the E3 medium each time directly before addition to the wells. The solutions were changed once daily, and the embryos were maintained in the incubator at 28.5 °C. At the end of the exposure period (96 hpf–hours postfertilization), acute toxicity was determined based on a positive outcome in any of the four visual indicators of lethality, including the coagulation of fertilized eggs, lack of somite formation, lack of detachment of the tailbud from the yolk sac and lack of heartbeat. The value of LD50 was calculated. Heartbeats were recorded to observe cardiotoxic effects. Moreover, images of the fish from each group were taken at the final time point to monitor the occurrence of developmental malformations. For the observations, a Discovery V8 Stereo optical microscope and Zeiss hardware were used. A dose-response curve was generated using Prism 8.0.1 (GraphPad Software) by fitting a sigmoid curve model to experimental data points. The concentrations of the compounds of interest causing 50% mortality (LD50) of 96 hpf larvae of Danio rerio were calculated.

Another series addresses T1, 5-HT6 receptor (Homo sapiens, UniProt P50406).
T1 construct: host or cells: cell membranes from cultured cells
Put plainly: Radioligand binding assay, 5-HT6 receptor. Particulars: mean ± SD, triplicate at 7 concentrations, Cheng-Prusoff; read-out: Affinity Ki 5-HT6R. The method, then: (§3) The affinity of the studied compounds to 5-HT1A, 5-HT2A, 5-HT6, 5-HT7, and D2 receptors was evaluated by a radioligand assay, as reported previously (Table 1). Each compound was tested in triplicate at seven concentrations (from 0.1 nM to 100 µM). Inhibition constants (Ki) were calculated from the Cheng–Prusoff equation [23].
(§4) The cell culture, cell membranes, and radioligand binding assays were performed in accordance with standard protocols.

A further series deals with T2, 5-HT2A receptor (Homo sapiens, UniProt P28223).
T2 construct: host or cells: cell membranes from cultured cells
Put plainly: Radioligand binding assay, 5-HT2A receptor. Particulars: mean ± SD, triplicate at 7 concentrations, Cheng-Prusoff; read-out: Affinity Ki 5-HT2AR. The method, then:
as §3, §4

For series [3], the system named is Danio rerio. Nature of the series: Fish embryo toxicity (FET) test, OECD 236, mortality. The series is classed as in vivo. Particulars: 96 hpf larvae, 96 h incubation at 28 °C. Here is the method: as §2
To determine the toxicity of the compounds, the fish embryo toxicity (FET) test was performed on zebrafish (Danio rerio) according to OECD Test Guideline 236. The collected embryos were transferred to a Petri dish with E3 medium (5 mM NaCl, 0.33 mM MgCl2, 0.33 mM CaCl2, 0.17 mM KCl; pH 7.2) and then placed in 6-well plates, 10 embryos per well. Stock solutions 2 and 12 were prepared in DMSO. […] At the end of the exposure period (96 hpf–hours postfertilization), acute toxicity was determined based on a positive outcome in any of the four visual indicators of lethality, including the coagulation of fertilized eggs, lack of somite formation, lack of detachment of the tailbud from the yolk sac and lack of heartbeat. The value of LD50 was calculated. Heartbeats were recorded to observe cardiotoxic effects. […]

In another series the target is T3, 5-HT1A receptor (Homo sapiens, UniProt P08908).
T3 construct: host or cells: cell membranes from cultured cells
T3 sequence (P08908 1-422): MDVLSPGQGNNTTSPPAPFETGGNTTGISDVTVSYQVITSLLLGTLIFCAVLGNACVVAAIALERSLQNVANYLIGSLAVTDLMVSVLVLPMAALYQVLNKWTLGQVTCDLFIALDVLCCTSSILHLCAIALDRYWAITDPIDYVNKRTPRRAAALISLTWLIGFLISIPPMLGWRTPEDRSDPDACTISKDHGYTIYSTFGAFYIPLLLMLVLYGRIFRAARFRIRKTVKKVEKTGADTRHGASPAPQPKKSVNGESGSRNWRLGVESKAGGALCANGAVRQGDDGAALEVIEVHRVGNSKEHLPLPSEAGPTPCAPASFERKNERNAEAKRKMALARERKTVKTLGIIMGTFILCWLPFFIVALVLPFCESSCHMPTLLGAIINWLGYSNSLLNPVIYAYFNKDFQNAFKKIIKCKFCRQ
Put plainly: Radioligand binding assay, 5-HT1A receptor. Particulars: mean ± SD, triplicate at 7 concentrations, Cheng-Prusoff; read-out: Affinity Ki 5-HT1AR. Here is the method: as §3, §4

In the next series the target is T4, 5-HT7 receptor (Homo sapiens, UniProt P34969).
T4 construct: host or cells: cell membranes from cultured cells
Nature of the series: Radioligand binding assay, 5-HT7 receptor. The following applies: for Ki: mean ± SD, triplicate at 7 concentrations, Cheng-Prusoff, read-out: Affinity Ki 5-HT7R; for activity with respect to 5-HT7R (in words): SAR discussion of radioligand data. Here is the method: as §3, §4

In the next series the target is CYP3A4 (Homo sapiens, UniProt P08684). Put plainly: CYP3A4 activity (drug-drug interaction) assay. The series is classed as in vitro ADME. The following applies: for inhibition activity toward CYP3A4 (in words): compound at 1 µM (concentration of ketoconazole) or lower; for %CYP3A4 activity: negative control = 100%. Here is the method: Potential drug–drug interactions (DDIs) are an important aspect that should be considered when designing new compounds. Isoenzyme CYP3A4 is one of the varieties of enzymes responsible for xenobiotic metabolism. We evaluated active compounds 2 and 12 in terms of affinity toward this isoenzyme (Figure 8).
as §1
Figure 8 The influence of 2 (left), 12 (right), and ketoconazole (KE) on CYP3A4 activity. Statistical significance (** p < 0.01, **** p < 0.0001) was analyzed by Graph Pad Prism 8.0.1 software using One-way ANOVA and Bonferroni’s Multiple Comparison Post Test in comparison with the negative control (100% of CYP3A4 activity). The compounds were examined in triplicate.

A further series concerns HepG2 cell line. Nature of the series: Hepatotoxicity: HepG2 cell line viability. The following applies: 72 h incubation; for cell viability (in words): HepG2, 100 µM; for effect on HepG2 cells at lower concentrations (in words): HepG2, <10 µM. The series is classed as cell-based. Here is the method:
(§5) The tested compounds 2 and 12 were evaluated in terms of cytotoxicity against the HepG2 cell line to assess their hepatotoxic potential (Figure 9). […].
as §1
(§6) Figure 9 The effect of cytostatic drug doxorubicin and 2 (left), 12 (right) on hepatoma HepG2 cell line viability after 72 h of incubation at 37°, 5% CO2. The statistical significance (GraphPad Prism 8.0.1) was evaluated by a one–way ANOVA, followed by Bonferroni’s Comparison Test (* p < 0.05, ** p < 0.01, and **** p < 0.0001 compared with negative control DMSO 1% in growth media.

A short description of series [4]: Hepatotoxicity: HepG2 cell line viability. The series is classed as cell-based. The following applies: human, HepG2 cells; HepG2, 50 µM, 72 h incubation. Here is the method: as §5, §1, §6
In another series the target is T5, D2 receptor (Homo sapiens, UniProt P14416).
T5 construct: host or cells: cell membranes from cultured cells
Nature of the series: Radioligand binding assay, D2 receptor. Particulars: mean ± SD, triplicate at 7 concentrations, Cheng-Prusoff; read-out: Affinity Ki D2R. Here is the method:
as §3, §4

T4 sequence (P34969 1-432 limits assumed): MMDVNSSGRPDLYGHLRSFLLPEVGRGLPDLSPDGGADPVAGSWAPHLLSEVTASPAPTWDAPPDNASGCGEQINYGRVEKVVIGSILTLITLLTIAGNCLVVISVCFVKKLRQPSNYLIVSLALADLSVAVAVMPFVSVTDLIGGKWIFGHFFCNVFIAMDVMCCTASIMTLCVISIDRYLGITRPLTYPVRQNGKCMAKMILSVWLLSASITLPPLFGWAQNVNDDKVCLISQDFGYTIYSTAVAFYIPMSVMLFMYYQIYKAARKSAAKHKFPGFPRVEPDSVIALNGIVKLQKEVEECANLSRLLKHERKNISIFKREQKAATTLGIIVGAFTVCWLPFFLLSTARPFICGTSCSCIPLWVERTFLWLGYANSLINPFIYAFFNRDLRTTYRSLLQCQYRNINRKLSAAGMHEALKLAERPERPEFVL
Chain of CYP3A4 (P08684 whole entry): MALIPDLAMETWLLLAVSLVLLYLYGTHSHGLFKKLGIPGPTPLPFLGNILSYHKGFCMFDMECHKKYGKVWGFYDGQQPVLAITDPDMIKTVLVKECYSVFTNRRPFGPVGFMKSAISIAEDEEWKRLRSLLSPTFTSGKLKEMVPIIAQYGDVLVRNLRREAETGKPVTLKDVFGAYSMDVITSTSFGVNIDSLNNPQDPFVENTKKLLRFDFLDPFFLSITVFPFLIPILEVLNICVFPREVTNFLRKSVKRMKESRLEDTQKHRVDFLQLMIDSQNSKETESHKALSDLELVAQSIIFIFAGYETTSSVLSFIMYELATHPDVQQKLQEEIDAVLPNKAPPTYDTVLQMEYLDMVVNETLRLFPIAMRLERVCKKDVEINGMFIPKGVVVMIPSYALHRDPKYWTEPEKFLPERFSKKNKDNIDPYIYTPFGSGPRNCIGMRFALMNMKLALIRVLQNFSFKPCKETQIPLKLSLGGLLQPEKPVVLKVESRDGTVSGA
T1 sequence (P50406 whole entry): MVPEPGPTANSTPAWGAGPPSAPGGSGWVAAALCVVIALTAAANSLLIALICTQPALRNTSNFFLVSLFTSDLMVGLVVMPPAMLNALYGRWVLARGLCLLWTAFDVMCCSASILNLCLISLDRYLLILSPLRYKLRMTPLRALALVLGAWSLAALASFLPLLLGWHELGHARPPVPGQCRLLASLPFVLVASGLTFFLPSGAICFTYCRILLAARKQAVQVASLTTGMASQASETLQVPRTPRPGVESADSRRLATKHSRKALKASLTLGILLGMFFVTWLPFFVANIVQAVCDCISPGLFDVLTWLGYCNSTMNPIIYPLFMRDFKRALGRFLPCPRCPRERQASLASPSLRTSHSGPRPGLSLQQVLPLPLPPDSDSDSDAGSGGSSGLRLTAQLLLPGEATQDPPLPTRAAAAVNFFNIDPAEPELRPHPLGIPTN
T2 sequence (P28223 whole entry): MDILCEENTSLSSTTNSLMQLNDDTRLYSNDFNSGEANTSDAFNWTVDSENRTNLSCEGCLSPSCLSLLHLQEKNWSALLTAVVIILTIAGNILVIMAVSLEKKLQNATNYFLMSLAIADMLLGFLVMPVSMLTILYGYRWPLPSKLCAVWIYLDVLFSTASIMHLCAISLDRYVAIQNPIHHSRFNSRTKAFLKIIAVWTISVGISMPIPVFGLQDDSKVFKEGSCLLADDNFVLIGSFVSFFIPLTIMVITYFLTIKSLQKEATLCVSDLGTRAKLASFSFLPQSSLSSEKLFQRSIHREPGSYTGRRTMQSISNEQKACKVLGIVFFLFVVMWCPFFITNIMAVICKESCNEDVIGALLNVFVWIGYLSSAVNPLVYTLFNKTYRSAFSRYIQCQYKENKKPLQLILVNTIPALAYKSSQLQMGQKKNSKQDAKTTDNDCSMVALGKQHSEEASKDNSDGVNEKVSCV
T5 sequence (P14416 whole entry): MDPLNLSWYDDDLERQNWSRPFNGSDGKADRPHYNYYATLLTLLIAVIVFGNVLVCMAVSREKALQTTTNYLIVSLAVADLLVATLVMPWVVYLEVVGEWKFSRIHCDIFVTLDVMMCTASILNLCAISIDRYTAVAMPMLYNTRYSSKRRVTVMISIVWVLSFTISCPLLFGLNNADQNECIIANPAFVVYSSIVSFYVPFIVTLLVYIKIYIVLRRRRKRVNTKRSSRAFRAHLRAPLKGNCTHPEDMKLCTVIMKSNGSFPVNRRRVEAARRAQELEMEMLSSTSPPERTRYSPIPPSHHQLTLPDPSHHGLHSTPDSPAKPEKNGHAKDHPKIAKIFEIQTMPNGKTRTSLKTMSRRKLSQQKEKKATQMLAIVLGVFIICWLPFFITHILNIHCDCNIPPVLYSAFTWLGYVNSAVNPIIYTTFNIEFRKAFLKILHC

Take `Cl.Nc1nc(NCCc2ccccc2)nc(NCCc2c[nH]c3ccc(F)cc23)n1` [Compound 2, N^2-(2-(5-Fluoro-1H-Indol-3-yl)ethyl)-N^4-Phenethyl-1,3,5-Triazine-2,4,6-Triamine Hydrochloride]: in [1], the “Metabolic Pathway” value was “hydroxylation ketone formation double hydroxylation dehydrogenation dehydrogenation double hydroxylation hydroxylation ketone formation and hydroxylation hydroxylation”; the fraction remaining at 2 h was 20%; the “% Remaining” value came to 19.79%. Besides, in the series on Danio rerio [2], the “concentration at which pericardial edema (PE) was observed” value came out at 5000 ng/mL and the “concentration found cardiotoxic (heart rate measurement)” value came out at 5000 ng/mL. In addition, at 5-HT6 receptor, the inhibition constant (Ki) amounted to 505 ± 61 nM. The Ki on 5-HT2A receptor was 413 ± 67 nM. Also, the “LD50 (mortality)” value with Danio rerio [3] amounted to 4.869 µg/mL. For the same compound, the Ki at 5-HT1A receptor turned out to be 13900 nM. Moreover, the Ki on 5-HT7 receptor came out at 8 ± 2 nM. For the same compound, the “inhibition activity toward CYP3A4 (in words)” value against CYP3A4 is “no or slight inhibition activity”. Moreover, the “%CYP3A4 activity” value at CYP3A4 (compound at 10 µM) is on record as 50%. Further, the “%CYP3A4 activity” value at CYP3A4 (compound at 25 µM) was under 15%. In the series on HepG2 cell line, the “cell viability (in words)” value is recorded as “practically no viable” and the “effect on HepG2 cells at lower concentrations (in words)” value is reported as “proliferative activity”. This compound also came in with a viability at 72 h, 50 µM in series [4] of 35%.
With `Cl.Nc1nc(NCCNc2cccc(F)c2)nc(NCCc2c[nH]c3ccccc23)n1` [Compound 11, N^2-(2-(1H-Indol-3-yl)ethyl)-N^4-(2-((3-Fluorophenyl)amino)ethyl)-1,3,5-Triazine-2,4,6-Triamine Hydrochloride], the melting point lay in the range of 74 to 79 °C. For the same compound, the Ki at 5-HT6 receptor worked out at 979 ± 237 nM. For the same compound, the Ki on 5-HT2A receptor stood at 1280 ± 168 nM. On 5-HT1A receptor, the Ki stood at 34600 nM. In addition, at D2 receptor, the Ki was 13800 nM. Moreover, on 5-HT7 receptor, the “activity with respect to 5-HT7R (in words)” value was “active” and the Ki was found to be 24 ± 5 nM.
For `Cl.Nc1nc(NCCNc2ccc(F)cc2)nc(NCCc2c[nH]c3ccccc23)n1` [Compound 12, N^2-(2-(1H-Indol-3-yl)ethyl)-N^4-(2-((4-Fluorophenyl)amino)ethyl)-1,3,5-Triazine-2,4,6-Triamine Hydrochloride], in series [1], the “Metabolic Pathway” value is reported as “decomposition hydroxylation dehydrogenation dehydrogenation double hydroxylation hydroxylation dehydrogenation”, the amount remaining at 2 h amounted to 29% and the “% Remaining” value amounted to 29.12%. Besides, in the series on Danio rerio [2], the “concentration at which pericardial edema (PE) was observed” value was 7500 ng/mL and the “concentration found cardiotoxic (heart rate measurement)” value stood at 7500 ng/mL. For the same compound, the Ki at 5-HT6 receptor turned out to be 1630 ± 301 nM. For the same compound, the Ki at 5-HT2A receptor is 3570 ± 491 nM. In addition, the “LD50 (mortality)” value in the series with Danio rerio [3] came to 16.95 µg/mL. Also, the Ki at 5-HT1A receptor was 43300 nM. Besides, the Ki at D2 receptor turned out to be 3000 ± 679 nM. Besides, on 5-HT7 receptor, the “activity with respect to 5-HT7R (in words)” value is “active” and the Ki came to 18 ± 3 nM. Also, at CYP3A4, the “inhibition activity toward CYP3A4 (in words)” value was “no or slight inhibition activity”. The “%CYP3A4 activity” value on CYP3A4 (compound at 10 µM) was determined as 20%. The “%CYP3A4 activity” value on CYP3A4 (compound at 25 µM) was under 15%. Moreover, in the series with HepG2 cell line, the “cell viability (in words)” value is recorded as “practically no viable” and the “effect on HepG2 cells at lower concentrations (in words)” value is reported as “proliferative activity”. This compound displayed a viability at 72 h, 50 µM in series [4] of 20%.
For the compound `Cl.Nc1nc(NCCc2c[nH]c3ccccc23)nc(Nc2cccc(Cl)c2)n1` [Compound 20, N^2-(2-(1H-Indol-3-yl)ethyl)-N^4-(3-Chlorophenyl)-1,3,5-Triazine-2,4,6-Triamine Hydrochloride], the melting point was 174 to 178 °C. Moreover, on 5-HT6 receptor, the inhibitory constant (Ki) is 2230 ± 528 nM. The Ki at 5-HT2A receptor turned out to be 2690 ± 549 nM. Also, the Ki on 5-HT1A receptor amounted to 14100 nM. Also, the Ki on D2 receptor was 2270 ± 153 nM. Besides, at 5-HT7 receptor, the “activity with respect to 5-HT7R (in words)” value is “inactive” and the Ki amounted to 1950 ± 261 nM.

One may read the share remaining as what is left of the initial amount, in per cent. Usually Ki stands for a dissociation constant, usually derived from enzyme kinetics or from competition with a known ligand. The term viability denotes a per cent measure of how many cells are alive, often set against a control. Higher therefore signals less harm to the cells. In general, melting point refers to the temperature of the solid-liquid transition.
